How the values were obtained:
IL-6 = assay: MSU-induced IL-6 in knee joint tissue (multiplex microassay); type: in vivo, mouse; settings: 2,4-D 100 mg/kg, CLC 1 mg/kg, DEX 0.5 mg/kg
Description: (§1) Mice (six per group) were treated with 2,4-D (100 mg/kg or 20 mg/kg, i.p.), CLC (1 mg/kg or 0.2 mg/kg, i.p.), DEX (0.5 mg/kg or 0.1 mg/kg, i.p.), or vehicle (20% polyoxyethylenesorbitan monooleate (Tween 80) plus PBS) 30 min before intra-articular stimulus with MSU (100 μg/10 μL, i.a.). Six mice with intra-articular injection with PBS alone served as a negative control.
(§2) Induction of MSU-Induced Knee Joint Inflammation. Male ICR (CD-1) mice (35-45 g, 10-12 weeks) were purchased from VitalRiver Inc (Beijing, China) and were kept in an animal care facility under controlled temperature of 21±1° C., humidity, and on a light/dark cycle, with ad libitum access to water and standard laboratory chow diet. Animal care and handling procedures were approved by the Animal Ethics Committee of GZUCM (Guangzhou University of Chinese Medicine). All efforts were made to minimize animal suffering and to reduce the number of animals used. Joint inflammation was induced by the intra-articular (i.a.) administration of MSU (200 μg/20 μl) into the right and left knee joints of mice under inhaled 3% isoflurane anesthesia. Control animals received an injection (i.a.) of sterile PBS (20 μL).
Cytokine Measurement. Mice were anesthetized and sacrificed. Knee joints were collected and frozen in liquid nitrogen. Samples were then homogenized in 500 μl of buffer containing protease inhibitors, centrifuged (3600 rpm, 4° C., 15 min) and supernatants were used to determine Th1/Th2/Th17 cytokine levels using a multiplex microassay (Qantibody® mouse TH17 Array 1 kit, Cat. No.: QAM-TH17-1; RayBiotech, Norcross, GA). Results were expressed as picograms (pg) of cytokine/mg of tissue.
Statistical Analysis. […] For in vitro experiments, microassays were performed in quadruplicate. p<0.05 was considered significant (*p<0.05, **p<0.01, ***p<0.001).

IL-17 = IL-17 protein in culture supernatant of RA-patient synovial cells; type: cell-based, human; settings: increasing concentrations
[1] = system: MSU-induced leukocyte recruitment; assay: MSU-induced leukocyte recruitment to the synovial cavity of knee joint; type: in vivo, mouse; settings: 20 h; 2,4-D 100 mg/kg, CLC 1 mg/kg, DEX 0.5 mg/kg
Description: as §1, with “2,4-D, isolated and purified from Chloranthus spicatus (purity≥98%), was purchased from BOC Science (Shirley, NY). Colchicine (CLC) (purity≥96%) and dexamethasone (DEX) (purity≥98%) were purchased from Sigma. Mice” for “Mice”
as §2
Histopathological Analysis. Knee joint was collected 20 h after MSU injection, fixed with 10% paraformaldehyde in PBS, and then decalcified for 10 days with EDTA and embedded in paraffin for histological analysis. […] Results are expressed as leukocytes infiltrate (cell/field) counted at the inflammatory foci within synovial cavity as indicative of synovitis. […]
Statistical Analysis. Data were analyzed using GraphPad Prism statistical software (GraphPad Software, Inc., United States-500.288, version 5.0). Results are presented as means±SEM or SD of measurements made on 6 mice per group, with statistical significance determined by two-way ANOVA, comparing each group to the control (“Model”) group. […]

IL-23 [2] = assay: IL-23 production (ELISA of supernatant) in LPS-stimulated THP-1 cell culture, Examples 1 and 8; type: cell-based, human
Description: The THP-1 cell line (TIB-202) was obtained from the American Type Culture Collection (ATCC, USA), grown in RPMI 1640 culture medium (Gibco) supplemented with 10% fetal bovine serum (Gibco, UK), 50 U/mL penicillin-streptomycin (Gibco), and 0.05 mM 2-Mercaptoethanol (Gibco). Cultured cells were plated into culture plates in appropriate volumes with a cell density of 500,000 cells/mL.
PCR was performed in duplicate using SYBR Green qPCR master mix (Takara Biomedical Technology Co., Ltd, Dalian, China) on an ABI 7500 Real-Time PCR System (Thermo, USA). The cycling program was as follows: denaturation at 95° C. for 15 s, 40 cycles of 95° C. for 15 s and extension at 60° C. for 60 s, followed by melt curve generation. The ΔΔCT method was used to quantify relative mRNA levels as described in User Bulletin #2 for the ABI PRISM 7700 Sequence Detection System (Applied Biosystems, 2001). The primer sequences used in this study are 5′-[…]-3′ (forward), 5′-[…]-3′ (reverse) for human IL-23p19 (SEQ ID NOs: 4 and 5, respectively); and 5′-ACAGTCCATGCCATCACTG-3′ (forward) and 5′-AGTAGAGGCAGGGATGATG-3′ for human GAPDH as a reference (SEQ ID NOs: 6 and 7, respectively). 24 hours after culture and treatments, supernatants were collected and IL-23 levels measured using the IL-23 Human Uncoated ELISA Kit (ThermoFisher Scientific Inc., USA) according to the manufacturer's instructions. A Varioskan LUX microplate reader (Thermo Fisher, USA) was used for the assay and 4-parameter logistic regression was used for data analysis. Two duplicates per sample were performed and results were averaged.
The anti-IL-23 activity of 2,4-D was compared with the commercially prescribed nonsteroidal anti-inflammatory drugs (NSAIDs:[…], Ibuprofen, and Aspirin) in the LPS-stimulated THP-1 cell culture system described above (Example 1)).

IL-23 [3] = assay: IL-23 protein in culture supernatant of RA-patient synovial cells; type: cell-based, human; settings: increasing concentrations

COc1cc(O)c(OC)c(O)c1C(=O)/C=C/c1ccccc1 [2,4-D, 2′,4′-dihydroxy-3′,6′-dimethoxychalcone]
decrease of IL-6 in knee joint tissue (IL-6): 7.6 fold | concentration of IL-17 protein in the culture supernatant (IL-17): significantly inhibited | reduction of MSU-induced leukocyte recruitment [1]: 4.5 fold | decrease of IL-23 detected in culture supernatant (IL-23 [2]; LPS-stimulated THP-1, 24 h): more than 90% | inhibition in IL-23 production/release in supernatant (IL-23 [2]; LPS-stimulated THP-1, Example 8): 5 to 10 fold | concentration of maximum inhibition of IL-23 cytokine production (IL-23 [2]; LPS-stimulated THP-1 cell culture): 20 µg/mL | concentration of IL-23 protein in the culture supernatant (IL-23 [3]): significantly inhibited
